Source: paper PMC7126831 (Bioorganic & Medicinal Chemistry, 2013)

Molecular target: SARS-CoV PLpro (Severe acute respiratory syndrome coronavirus, UniProt P0C6U8)
Experiment: biochemical
Format: biochemical

| SMILES | Kinetic mode | IC50 |
| --- | --- | --- |
| CC(C)(O)CCCC1(C)CCc2c(cc3c(c2O)C(=O)C[C@@H](c2ccc(O)c(O)c2)O3)O1 (stereo partly drawn) [Compound 1, (2S)-2-(3,4-dihydroxyphenyl)-5-hydroxy-8-(4-hydroxy-4-methylpentyl)-8-methyl-2,3,7,8-tetrahydropyrano[3,2-g]chromen-4(6H)-one] | Mixed (4.8) |  |
| COc1cc([C@@H]2CC(=O)c3c(cc4c(c3O)CCC(C)(CCCC(C)(C)O)O4)O2)cc(O)c1OC (stereo partly drawn) [Compound 3, (2S)-5-hydroxy-2-(5-hydroxy-3,4-dimethoxyphenyl)-8-(4-hydroxy-4-methylpentyl)-8-methyl-2,3,7,8-tetrahydropyrano[3,2-g]chromen-4(6H)-one] | Mixed (5.0) |  |
| COc1cc([C@@H]2CC(=O)c3c(cc4c(c3O)CCC(C)(CCCC(C)(C)O)O4)O2)cc(OC)c1O (stereo partly drawn) [Compound 4, (2S)-5-hydroxy-2-(4-hydroxy-3,5-dimethoxyphenyl)-8-(4-hydroxy-4-methylpentyl)-8-methyl-2,3,7,8-tetrahydropyrano[3,2-g]chromen-4(6H)-one] | Mixed (13.0) |  |
| COc1cc([C@H]2Oc3cc4c(c(O)c3C(=O)[C@@H]2O)CCC(C)(CCCC(C)(C)O)O4)ccc1O (stereo partly drawn) [Compound 5, (2R,3R)-3,5-dihydroxy-2-(4-hydroxy-3-methoxyphenyl)-8-(4-hydroxy-4-methylpentyl)-8-methyl-2,3,7,8-tetrahydropyrano[3,2-g]chromen-4(6H)-one] | Mixed (3.7) |  |
| COc1cc([C@H]2Oc3cc(O)c(C/C=C(\C)CCC=C(C)C)c(O)c3C(=O)[C@@H]2O)ccc1O [Compound 6, 3′-O-methyldiplacol] | Mixed (6.6) |  |
| COc1ccc([C@H]2Oc3cc(O)c(C/C=C(\C)CCC=C(C)C)c(O)c3C(=O)[C@@H]2O)cc1O [Compound 7, 4′-O-methyldiplacol] | Mixed (6.3) |  |
| COc1cc([C@@H]2CC(=O)c3c(cc(O)c(C/C=C(\C)CCC=C(C)C)c3O)O2)ccc1O [Compound 8, 3′-O-methyldiplacone] | Mixed (7.1) |  |
| COc1cc(C2CC(=O)c3c(cc(O)c(C/C=C(\C)CCC=C(C)C)c3O)O2)cc(OC)c1O (centres unmarked) [Compound 12, 6-geranyl-4′,5,7-trihydroxy-3′,5′-dimethoxyflavanone] |  | 13.9 ± 0.18 µM |
